Measurements from patent publication US6946482B2, “Motilide compounds” (Kosan Biosciences, Inc., priority 2002, dated 2005).
In brackets after ≈: the same amount, converted by molar mass. Where two headings read alike, the source gives them in different places.

Assays:
motilin receptor [1] = target: T1, motilin receptor (Homo sapiens, UniProt O43193); conditions: cell-based and muscle strip contractility assays; cited from earlier work
T1 construct: expressed in transfected cells

motilin receptor [2] = target: T1, motilin receptor; assay: Motilin receptor activation, calcium-influx assay; type: cell-based
Excerpt: The compounds of formula (I) are agonists of the motilin receptor.

[3] = test system: Streptococcus pneumoniae ATCC 6301; assay: In vitro susceptibility test (MIC); type: cell-based; conditions: ATCC6301
Experimental: Antibacterial activity (Table 2) was determined by in vitro susceptibility tests against Streptococcus pneumoniae ATCC 6301, a macrolide-sensitive strain, using methods known in the microbiological art.

motilin receptor [4] = target: T1, motilin receptor; assay: Motilin receptor desensitization, cell-based assay
Experimental: Compounds were tested for motilin receptor desensitization using the cell-based assay described in Carreras et al., US 2002/0192709 A1 (2002), “Methods for Evaluating Therapeutic Efficacy,” the disclosure of which is incorporated herein by reference.

gut contraction = conditions: conscious dogs, dose 1 mg/kg; cited from earlier work
motilin receptor [5] = target: T1, motilin receptor; conditions: cited from earlier work
[6] = Streptococcus pneumoniae ATCC 6301, macrolide-sensitive strain, read-out: MIC

T1 sequence (O43193 whole entry): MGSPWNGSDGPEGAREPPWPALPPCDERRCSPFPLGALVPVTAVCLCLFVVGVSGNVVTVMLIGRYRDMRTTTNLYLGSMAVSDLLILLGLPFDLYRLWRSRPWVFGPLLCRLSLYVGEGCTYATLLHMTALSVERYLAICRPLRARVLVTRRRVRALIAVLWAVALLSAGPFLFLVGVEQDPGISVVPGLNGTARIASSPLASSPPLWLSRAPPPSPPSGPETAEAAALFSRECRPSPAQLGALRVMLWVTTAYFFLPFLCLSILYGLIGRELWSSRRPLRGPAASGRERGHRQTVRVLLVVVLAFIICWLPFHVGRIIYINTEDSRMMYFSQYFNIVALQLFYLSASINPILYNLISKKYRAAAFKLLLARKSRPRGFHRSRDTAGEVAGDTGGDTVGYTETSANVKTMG

Compound | EC50 (motilin receptor [2]) | MIC [3, 6] | further results
CC[C@H]1OC(=O)[C@H](C)[C@@H](OC2C[C@@](C)(OC)C[C@H](C)O2)[C@H](C)[C@@H](OC2O[C@H](C)C[C@H](N(C)C(C)C)[C@H]2O)[C@@]2(C)CC(C)=C(O2)[C@H](C)C(=O)[C@]1(C)OC (some centres unmarked) [Compound 7] |  |  | Motilin receptor desensitization (in words) (motilin receptor [1]): show motilin receptor desensitization
CCN(C)C1CC(C)OC(OC2C(C)C(OC3CC(C)(OC)C(O)C(C)O3)C(C)C(=O)OC(CCF)C(C)(O)C(O)C(C)C(O)C(C)CC2(C)O)C1O [D, N-desmethyl-N-ethyl(9S)-9-dihydro-15-fluoroerythromycin A] | 2000 nM |  | 
CCCC1OC(=O)C(C)C(OC2CC(C)(OC)C(O)C(C)O2)C(C)C(OC2OC(C)CC(N(C)C(C)C)C2O)C(C)(O)CC(C)C(O)C(C)C(O)C1(C)O [G, N-desmethyl-N-isopropyl-15-methyl-(9S)-9-dihydroerythromycin A] | 1400 nM | > 100 µg/mL | Activity following exposure to compound (% of original activity retained) (motilin receptor [4]; 1 μM compound): 100%; Activity following exposure to compound (% of original activity retained) (motilin receptor [4]; 10 μM compound): 100%
CCC1OC(=O)C(C)C(OC2CC(C)(OC)C(O)C(C)O2)C(C)C(OC2OC(C)CC(N(C)C(C)C)C2O)C(C)(O)CC(C)C(O)C(C)CC1C [J, N-desmethyl-N-isopropyl-11-deoxy-(9S)-9-dihydroerythromycin B] | 160 nM | > 100 µg/mL | Activity following exposure to compound (% of original activity retained) (motilin receptor [4]; 1 μM compound): 88%; Activity following exposure to compound (% of original activity retained) (motilin receptor [4]; 10 μM compound): 88%
CCCC1OC(=O)C(C)C(OC2CC(C)(OC)C(O)C(C)O2)C(C)C(OC2OC(C)CC(N(C)C(C)CC)C2O)C(C)(O)CC(C)C(O)C(C)C(O)C1(C)O [H, N-desmethyl-N-(2-butyl) (9S)-9-dihydro-15-methylerythromycin A] | 3300 nM |  | 
CCC1OC(=O)C(C)C(OC2CC(C)(OC)C(O)C(C)O2)C(C)C(OC2OC(C)CC(N(C)C)C2O)C(C)(O)CC(C)C(O)C(C)C(O)C1(C)O [A, (9S)-9-dihydroerythromycin A, reference compound] | 2500 nM | 0.3 µg/mL (≈ 0.408 µM) | Activity relative to erythromycin, stimulation of gut contraction (gut contraction): 65%
CCCC1OC(=O)C(C)C(OC2CC(C)(OC)C(O)C(C)O2)C(C)C(OC2OC(C)CC(N(C)C)C2O)C(C)(O)CC(C)C(O)C(C)C(O)C1(C)O [F, (9S)-9-dihydro-15-methylerythromycin A] | 8600 nM | 1 µg/mL (≈ 1.33 µM) | Activity following exposure to compound (% of original activity retained) (motilin receptor [4]; 1 μM compound): 100%; Activity following exposure to compound (% of original activity retained) (motilin receptor [4]; 10 μM compound): 100%
CCC1OC(=O)C(C)C(OC2CC(C)(OC)C(O)C(C)O2)C(C)C(OC2OC(C)CC(N(C)C(C)C)C2O)C(C)(O)CC(C)C(O)C(C)C(O)C1(C)O (centres unmarked) [B] | 490 nM |  | 
COC1(C)CC(OC2C(C)C(=O)OC(CCF)C(C)(O)C(O)C(C)C(O)C(C)CC(C)(O)C(OC3OC(C)CC(N(C)C(C)C)C3O)C2C)OC(C)C1O [E, N-desmethyl-N-isopropyl(9S)-9-dihydro-15-fluoroerythromycin A] | 520 nM |  | 
CCC1OC(=O)C(C)C(OC2CC(C)(OC)C(O)C(C)O2)C(C)C(OC2OC(C)CC(N(C)C)C2O)C(C)(O)CC(C)C(=O)C(C)C(O)C1(C)O (centres unmarked) [Erythromycin A, reference compound] |  |  | MIC ([3]; Streptococcus pneumoniae): 0.03 µg/mL (≈ 0.0409 µM); Motilin agonist activity (in words) (motilin receptor [5]): motilin agonist activity
COC1(C)CC(OC2C(C)C(=O)OC(CCF)C(C)(O)C(O)C(C)C(O)C(C)CC(C)(O)C(OC3OC(C)CC(N(C)C)C3O)C2C)OC(C)C1O [C, (9S)-9-dihydro-15-fluoroerythromycin A] | 5000 nM |  | 
